Test results as given in US10399940B2, “Substituted pyrrolidines and methods of use” (AbbVie S.à.r.l., priority 2016, dated 2019).
Read-outs that look alike come from different tables or passages of the source.

Target: T1, F508delCFTR (Homo sapiens, UniProt P13569, DEL508-508)
T1 construct: expressed in transfected cells; host or cells: CFBE41o- (human lung derived epithelial cell line), doxycycline-inducible expression
Assay: Cell Surface Expression-Horse Radish Peroxidase (CSE-HRP) assay
Assay type: cell-based
Settings: CFBE41o-F508delCFTR-HRP cells; for Maximum % activity (with co-corrector): with co-corrector (2 μM); for Maximum % activity (with co-corrector) / Maximum % activity (without co-corrector): normalized to on-plate positive control, highest concentration 20 μM
Method in brief: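 CFBE41o- cells expressed F508delCFTR with HRP in the fourth exofacial loop, induced by 0.5 μg/mL doxycycline for 72 h at 37 °C. Compounds alone or with 2 μM co-corrector ran 18–24 h at 33 °C, 8-point 3-fold from 20 μM. Washed-cell luminol luminescence was normalized to DMSO and positive control, fitted sigmoidally for EC50 (three plates).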

[1] = test compound without co-corrector, 18-24 hours at 33° C., read-out: EC50 (without co-corrector)
[2] = with co-corrector (2 μM of 3-[(2R,4R)-4-({[1-(2,2-difluoro-1,3-benzodioxol-5-yl)cyclopropyl]carbonyl}amino)-7-methoxy-3,4-dihydro-2H-chromen-2-yl]benzoic acid), read-out: EC50 (with co-corrector)

T1 sequence (P13569 with tags, fused parts or gaps DEL508-508): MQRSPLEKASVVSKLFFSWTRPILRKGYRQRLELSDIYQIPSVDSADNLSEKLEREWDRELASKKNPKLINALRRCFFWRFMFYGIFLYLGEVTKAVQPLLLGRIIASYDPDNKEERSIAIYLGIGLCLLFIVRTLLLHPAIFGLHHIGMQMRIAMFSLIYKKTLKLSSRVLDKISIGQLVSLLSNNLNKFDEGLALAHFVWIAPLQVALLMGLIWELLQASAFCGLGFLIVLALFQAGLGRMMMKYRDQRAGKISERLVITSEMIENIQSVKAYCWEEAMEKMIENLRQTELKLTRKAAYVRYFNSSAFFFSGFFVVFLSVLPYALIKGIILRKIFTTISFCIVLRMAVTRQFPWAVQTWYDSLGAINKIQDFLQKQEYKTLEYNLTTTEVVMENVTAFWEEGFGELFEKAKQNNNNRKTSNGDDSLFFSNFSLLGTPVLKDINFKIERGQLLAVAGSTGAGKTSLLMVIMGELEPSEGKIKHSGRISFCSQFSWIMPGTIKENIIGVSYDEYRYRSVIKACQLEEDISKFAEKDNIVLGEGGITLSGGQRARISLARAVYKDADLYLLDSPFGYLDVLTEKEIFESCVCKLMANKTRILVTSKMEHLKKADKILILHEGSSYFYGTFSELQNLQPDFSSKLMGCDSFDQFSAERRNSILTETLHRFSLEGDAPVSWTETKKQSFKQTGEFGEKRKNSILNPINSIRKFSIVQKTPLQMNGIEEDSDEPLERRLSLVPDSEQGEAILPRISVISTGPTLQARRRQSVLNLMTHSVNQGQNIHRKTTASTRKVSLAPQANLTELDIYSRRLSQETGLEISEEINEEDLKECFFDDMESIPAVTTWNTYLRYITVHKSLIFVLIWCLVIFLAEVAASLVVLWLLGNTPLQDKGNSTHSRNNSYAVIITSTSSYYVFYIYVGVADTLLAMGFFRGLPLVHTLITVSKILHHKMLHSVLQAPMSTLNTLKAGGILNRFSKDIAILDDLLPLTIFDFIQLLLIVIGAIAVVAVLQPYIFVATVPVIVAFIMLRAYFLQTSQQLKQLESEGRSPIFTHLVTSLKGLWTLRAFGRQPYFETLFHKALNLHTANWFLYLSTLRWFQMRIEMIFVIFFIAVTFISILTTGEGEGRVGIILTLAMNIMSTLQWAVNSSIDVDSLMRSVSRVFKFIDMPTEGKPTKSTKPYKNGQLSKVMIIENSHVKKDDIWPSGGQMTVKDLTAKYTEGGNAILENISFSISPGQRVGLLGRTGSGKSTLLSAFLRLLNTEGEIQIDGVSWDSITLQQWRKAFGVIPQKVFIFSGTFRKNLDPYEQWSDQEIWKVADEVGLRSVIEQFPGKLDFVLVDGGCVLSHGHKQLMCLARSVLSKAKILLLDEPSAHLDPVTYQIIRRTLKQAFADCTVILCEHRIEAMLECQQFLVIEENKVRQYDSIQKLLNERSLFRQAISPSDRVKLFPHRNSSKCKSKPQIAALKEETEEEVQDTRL

Row | SMILES | EC50 [1] | EC50 [2] | Maximum % activity (with co-corrector) | Maximum % activity (without co-corrector)
1 | [2H]C([2H])(O[C@H]1[C@H](C(C)(C)C)[C@@H](C(=O)O)N(C(=O)[C@@H]2CCCCO2)[C@H]1c1ccccc1C)c1cc(C(C)(C)C)ccc1OC [Example 235, (2S,3R,4S,5S)-3-tert-butyl-4-{[(5-tert-butyl-2-methoxyphenyl)(^2H2)methyl]oxy}-5-(2-methylphenyl)-1-[(2S)-oxane-2-carbonyl]pyrrolidine-2-carboxylic acid] | < 1 µM | < 1 µM | +++ (≥350) | +++ (≥200)
2 | Cc1cc(C)c2cc(CO[C@H]3[C@H](C(C)(C)C)[C@@H](C(=O)O)N(C(=O)[C@@H]4CCCCO4)[C@H]3c3ccccc3C)c(Cl)nc2c1 [Example 236, (2S,3R,4S,5S)-3-tert-butyl-4-[(2-chloro-5,7-dimethylquinolin-3-yl)methoxy]-5-(2-methylphenyl)-1-[(2S)-oxane-2-carbonyl]pyrrolidine-2-carboxylic acid] | 1 to 10 µM | 1 to 10 µM | +++ (≥350) | ++ (≥100 and <200)
3 | COc1nc2c(C)ccc(C)c2cc1CO[C@H]1[C@H](C(C)(C)C)[C@@H](C(=O)O)N(C(=O)[C@@H]2CCCCO2)[C@H]1c1ccccc1C [Example 237, (2S,3R,4S,5S)-3-tert-butyl-4-[(2-methoxy-5,8-dimethylquinolin-3-yl)methoxy]-5-(2-methylphenyl)-1-[(2S)-oxane-2-carbonyl]pyrrolidine-2-carboxylic acid] | 1 to 10 µM | < 1 µM | +++ (≥350) | +++ (≥200)
4 | COc1nc2cc(C)cc(C)c2cc1CO[C@H]1[C@H](C(C)(C)C)[C@@H](C(=O)O)N(C(=O)[C@@H]2CCCCO2)[C@H]1c1ccccc1C [Example 238, (2S,3R,4S,5S)-3-tert-butyl-4-[(2-methoxy-5,7-dimethylquinolin-3-yl)methoxy]-5-(2-methylphenyl)-1-[(2S)-oxane-2-carbonyl]pyrrolidine-2-carboxylic acid] | 1 to 10 µM | < 1 µM | +++ (≥350) | +++ (≥200)
5 | COc1ccccc1[C@H]1[C@@H](OCc2cc(C3CCC3)cnc2OC)[C@H](C(C)(C)C)[C@@H](C(=O)O)N1C(=O)[C@@H]1CCCCO1 [Example 239, (2S,3R,4S,5S)-3-tert-butyl-4-[(5-cyclobutyl-2-methoxypyridin-3-yl)methoxy]-5-(2-methoxyphenyl)-1-[(2S)-oxane-2-carbonyl]pyrrolidine-2-carboxylic acid] | 1 to 10 µM | < 1 µM | +++ (≥350) | ++ (≥100 and <200)
6 | COc1ccccc1[C@H]1[C@@H](OCc2cc(C(F)(F)F)cnc2OC)[C@H](C(C)(C)C)[C@@H](C(=O)O)N1C(=O)[C@@H]1CCCCO1 [Example 240, (2S,3R,4S,5S)-3-tert-butyl-5-(2-methoxyphenyl)-4-{[2-methoxy-5-(trifluoromethyl)pyridin-3-yl]methoxy}-1-[(2S)-oxane-2-carbonyl]pyrrolidine-2-carboxylic acid] | 1 to 10 µM | < 1 µM | +++ (≥350) | ++ (≥100 and <200)
7 | COc1ccccc1[C@H]1[C@@H](OCc2cc(C(C)(C)C)cnc2OC)[C@H](C(C)(C)C)[C@@H](C(=O)O)N1C(=O)[C@@H]1CCCCO1 [Example 241, (2S,3R,4S,5S)-3-tert-butyl-4-[(5-tert-butyl-2-methoxypyridin-3-yl)methoxy]-5-(2-methoxyphenyl)-1-[(2S)-oxane-2-carbonyl]pyrrolidine-2-carboxylic acid] | 1 to 10 µM | < 1 µM | +++ (≥350) | +++ (≥200)
8 | COc1nc2c(C)cc(C)cc2cc1CO[C@H]1[C@H](C(C)(C)C)[C@@H](C(=O)O)N(C(=O)[C@@H]2CCCCO2)[C@H]1c1ccccc1C [Example 242, (2S,3R,4S,5S)-3-tert-butyl-4-[(2-methoxy-6,8-dimethylquinolin-3-yl)methoxy]-5-(2-methylphenyl)-1-[(2S)-oxane-2-carbonyl]pyrrolidine-2-carboxylic acid] | 1 to 10 µM | 1 to 10 µM | +++ (≥350) | ++ (≥100 and <200)
9 | COc1ncc(C2(C)CC2)cc1CO[C@H]1[C@H](C(C)(C)C)[C@@H](C(=O)O)N(C(=O)[C@@H]2CCCCO2)[C@H]1c1ccccc1C [Example 243, (2S,3R,4S,5S)-3-tert-butyl-4-{[2-methoxy-5-(1-methylcyclopropyl)pyridin-3-yl]methoxy}-5-(2-methylphenyl)-1-[(2S)-oxane-2-carbonyl]pyrrolidine-2-carboxylic acid] | 1 to 10 µM | < 1 µM | +++ (≥350) | +++ (≥200)
10 | COc1nc2c(C)cccc2cc1CO[C@H]1[C@H](C(C)(C)C)[C@@H](C(=O)O)N(C(=O)[C@@H]2CCCCO2)[C@H]1c1ccccc1C [Example 244, (2S,3R,4S,5S)-3-tert-butyl-4-[(2-methoxy-8-methylquinolin-3-yl)methoxy]-5-(2-methylphenyl)-1-[(2S)-oxane-2-carbonyl]pyrrolidine-2-carboxylic acid] | 1 to 10 µM | 1 to 10 µM | +++ (≥350) | ++ (≥100 and <200)
11 | COc1ccc(C(C)(C)C)cc1CO[C@H]1[C@H](C(C)(C)C)[C@@H](C(=O)O)N(C(=O)OC(C)C)[C@H]1c1cccnc1OC(C)C [Example 245, (2S,3R,4S,5S)-3-tert-butyl-4-[(5-tert-butyl-2-methoxyphenyl)methoxy]-1-{[(propan-2-yl)oxy]carbonyl}-5-{2-[(propan-2-yl)oxy]pyridin-3-yl}pyrrolidine-2-carboxylic acid] | 1 to 10 µM | 1 to 10 µM | +++ (≥350) | +++ (≥200)
12 | COc1ccc(C2(C)CCC2)cc1CO[C@H]1[C@H](C(C)(C)C)[C@@H](C(=O)O)N(C(=O)OC(C)C)[C@H]1c1cccnc1OC(C)C [Example 246, (2S,3R,4S,5S)-3-tert-butyl-4-{[2-methoxy-5-(1-methylcyclobutyl)phenyl]methoxy}-1-{[(propan-2-yl)oxy]carbonyl}-5-{2-[(propan-2-yl)oxy]pyridin-3-yl}pyrrolidine-2-carboxylic acid] | 1 to 10 µM | < 1 µM | +++ (≥350) | +++ (≥200)
13 | COc1ccc(C(C)(C)C)cc1CO[C@H]1[C@H](C(C)(C)C)[C@@H](C(=O)O)N(C(=O)[C@@H]2CCCO2)[C@H]1c1ccccc1C [Example 247, (2S,3R,4S,5S)-3-tert-butyl-4-[(5-tert-butyl-2-methoxyphenyl)methoxy]-5-(2-methylphenyl)-1-[(2S)-oxolane-2-carbonyl]pyrrolidine-2-carboxylic acid] | 1 to 10 µM | 1 to 10 µM | +++ (≥350) | +++ (≥200)
14 | COc1nc2c(C)ccc(C)c2cc1CO[C@H]1[C@H](C(C)(C)C)[C@@H](C(=O)O)N(C(=O)C2CCCCC2)[C@H]1c1cccnc1OC(C)C [Example 248, (2S,3R,4S,5S)-3-tert-butyl-1-(cyclohexanecarbonyl)-4-[(2-methoxy-5,8-dimethylquinolin-3-yl)methoxy]-5-{2-[(propan-2-yl)oxy]pyridin-3-yl}pyrrolidine-2-carboxylic acid] | 1 to 10 µM | 1 to 10 µM | +++ (≥350) | +++ (≥200)
15 | C=C(CO[C@H]1[C@H](C(C)(C)C)[C@@H](C(=O)O)N(C(=O)[C@@H]2CCCCO2)[C@H]1c1ccccc1C)c1cc(C(F)(F)F)ccc1OC [Example 249, (2S,3R,4S,5S)-3-tert-butyl-4-({2-[2-methoxy-5-(trifluoromethyl)phenyl]prop-2-en-1-yl}oxy)-5-(2-methylphenyl)-1-[(2S)-oxane-2-carbonyl]pyrrolidine-2-carboxylic acid] | 1 to 10 µM | < 1 µM | +++ (≥350) | +++ (≥200)
16 | COc1ncc(C(C)(C)C)cc1CO[C@H]1[C@H](C(C)(C)C)[C@@H](C(=O)O)N(C(=O)C2CCCCC2)[C@H]1c1cccnc1OC(C)C [Example 250, (2S,3R,4S,5S)-3-tert-butyl-4-[(5-tert-butyl-2-methoxypyridin-3-yl)methoxy]-1-(cyclohexanecarbonyl)-5-{2-[(propan-2-yl)oxy]pyridin-3-yl}pyrrolidine-2-carboxylic acid] | < 1 µM | < 1 µM | +++ (≥350) | ++ (≥100 and <200)
17 | COc1ccc(C(C)(C)C)cc1CO[C@H]1[C@H](C(C)(C)C)[C@@H](C(=O)O)N(C(=O)C2CCCCC2)[C@H]1c1cccnc1OC(C)C [Example 251, (2S,3R,4S,5S)-3-tert-butyl-4-[(5-tert-butyl-2-methoxyphenyl)methoxy]-1-(cyclohexanecarbonyl)-5-{2-[(propan-2-yl)oxy]pyridin-3-yl}pyrrolidine-2-carboxylic acid] | < 1 µM | < 1 µM | +++ (≥350) | +++ (≥200)
